Columns and labels:
Test in all cases: whole plant or invertebrate
Type in all cases: in vivo
[1] = system: corn planthopper (Pereginus maidis); settings: rate 0.4 ppm
Procedure: (§1) The pest control protection afforded by the mixtures or compositions is not limited, however, to these species. The analysis of synergism or antagonism between the mixtures or compositions was determined using Colby's equation. The average % mortality data for the test compounds alone were inserted into the Colby's equation. If the observed average % mortality was higher than “p”, the expected % mortality, the mixture or composition had synergistic effects. If the observed average % mortality was equal to or lower than the expected mortality, the mixture or composition either had no synergistic effect or an antagonistic effect. In these tests, Compound 1 is the compound of Formula 1.
(§2) Test compounds were formulated using a solution containing 10% acetone, 90% water and 300 ppm X-77® Spreader Lo-Foam Formula non-ionic surfactant containing alkylarylpolyoxyethylene, free fatty acids, glycols and isopropanol (Loveland Industries, Inc.) to provide the desired concentration in ppm. Formulated test solutions were then applied in 1 mL volumes through a SUJ2 atomizer nozzle with ⅛ JJ custom body (Spraying Systems Co.) positioned 1.27 cm (0.5 inches) above the top of each test unit.
For evaluating control of corn planthopper (Pereginus maidis) through contact and/or systemic means, each test unit consisted of a small open cylindrical container with a 3- to 4-day-old corn (maize) plant (spike) inside. White sand was added to the top of the soil prior to application. Test compounds were formulated and sprayed with 3 replications as described for Test A. After spraying, the test units were allowed to dry for 1 hour before they were post-infested with 10 to 20 corn planthoppers (18- to 20-day-old nymphs) by sprinkling them onto the sand with a salt shaker. A black, screened cap was placed on the top of each container. The test units were held for 6 days in a growth chamber at 19-21° C. and 50-70% relative humidity.

[2] = system: cotton melon aphid (Aphis gossypii Glover); settings: rate 2 ppm
Procedure: as §1, §2
For evaluating control of cotton melon aphid (Aphis gossypii Glover) through contact and/or systemic means, each test unit consisted of a small open container with a 6- to 7-day-old cotton plant inside. This was pre-infested by placing on a leaf of the test plant 30 to 40 aphids on a piece of leaf excised from a culture plant (cut-leaf method). The larvae moved onto the test plant as the leaf piece desiccated. After pre-infestation, the soil of the test unit was covered with a layer of sand.
Test compounds were formulated and sprayed as described for Test A. The applications were replicated three times. After spraying of the formulated test compounds, each test unit was allowed to dry for 1 hour and then a black, screened cap was placed on top. The test units were held for 6 days in a growth chamber at 19-21° C. and 50-70% relative humidity.

[3] = system: silverleaf whitefly (Bemisia argentifolii Bellows and Perring); settings: Table 2B; rate 10 ppm, compound alone
Procedure: as §1
For evaluating control of silverleaf whitefly (Bemisia argentifolii Bellows and Perring) through contact and/or systemic means, each test unit consisted of a small open container with a 12- to 14-day-old cotton plant inside. This was pre-infested by placing test units into cages infested with adult whiteflies so that oviposition on the cotton leaves could occur. The adults were removed from the plants with an air-blast nozzle, and the test units were capped. The test units were then stored 2 to 3 days before spraying.
as §2
The results for all experimental compositions in this test were replicated three times. After spraying of the formulated test composition, each test unit was allowed to dry for 1 hour and the cap removed. The test units were held for 13 days in a growth chamber at 28° C. and 50-70% relative humidity.

[4] = system: potato leafhopper (Empoasca fabae Harris); settings: Compound 1 0 ppm
Procedure: as §1, §2
For evaluating control of potato leafhopper (Empoasca fabae Harris) through contact and/or systemic means, each test unit consisted of a small open container with a 5- to 6-day-old Longio bean plant (primary leaves emerged) inside. White sand was added to the top of the soil, and one of the primary leaves was excised prior to application. Test compounds were formulated and sprayed with 3 replications as described for Test A. After spraying, the test units were allowed to dry for 1 hour before they were infested with 5 potato leafhoppers (18- to 21-day-old adults). A black, screened cap was placed on the top of each container. The test units were held for 6 days in a growth chamber at 19-21° C. and 50-70% relative humidity.

[5] = system: green peach aphid (Myzus persicae Sulzer); settings: Myzus persicae, in Raphanus sativus, read-out: % Mortality (observed)
Procedure: as §1, §2
For evaluating control of green peach aphid (Myzus persicae Sulzer) through contact and/or systemic means, each test unit consisted of a small open container with a 12- to 15-day-old radish plant inside. This was pre-infested by placing on a leaf of the test plant 30 to 40 aphids on a piece of leaf excised from a culture plant (cut-leaf method). The larvae moved onto the test plant as the leaf piece desiccated. After pre-infestation, the soil of the test unit was covered with a layer of sand.
Test compounds were formulated and sprayed as described in Test A, replicated three times. After spraying of the formulated test compound, each test unit was allowed to dry for 1 hour and then a black, screened cap was placed on top. The test units were held for 6 days in a growth chamber at 19-21° C. and 50-70% relative humidity.

Compound	% mortality (obs) [1]	% mortality (obs) [2]	% mortality (obs) [3]	% Mortality (observed) ([4]; Imidacloprid 0.4 ppm)	% Mortality (observed) ([4]; Imidacloprid 1.4 ppm)	% Mortality (observed) ([4]; Imidacloprid 4.6 ppm)	mortality at 0.3 ppm [5]
dinotefuran	86%	64%	74%	–	–	–	–
O=[N+]([O-])NC1=NCCN1Cc1ccc(Cl)nc1 [Imidacloprid, imidacloprid]	–	–	–	20%	0%	20%	50%
